The values that follow come from the supplement of paper PMC10307832.

Holding throughout (assay): relative viability (nuclei count vs DMSO), 5 days (fraction); higher = more cells survive
Compound in the experiment “RAF265 + Phenformin”: Cn1c(Nc2ccc(C(F)(F)F)cc2)nc2cc(Oc3ccnc(-c4ncc(C(F)(F)F)[nH]4)c3)ccc21 [RAF265] + N=C(N)NC(=N)NCCc1ccccc1 [Phenformin] (partner 250 µM)
The method in brief: (§1)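 After 5 days of treatment, lung cancer cells in 1536-well plates were fixed and stained in a single step (final 0.05% Triton X-100, 1% formaldehyde, 1 ug/ml Hoechst) and their nuclei counted on 4× images. Treatment had been applied by pin tool the day after seeding as one drug alone or as a fixed anchor-drug dose with five library-drug doses (not always all listed) in √10 steps. Relative viability is the nuclei count of treated wells divided by that of vehicle wells, and values are medians of duplicate plates.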

Compound in the experiment “IPA-3 + Vorinostat”: C1=CC=C2C(=C1)C=CC(=C2SSC3=C(C=CC4=CC=CC=C43)O)O [IPA-3] + O=C(CCCCCCC(=O)Nc1ccccc1)NO [Vorinostat] (partner 1 µM)
The method, boiled down: as §1

Compound in the experiment “Doramapimod + Bortezomib”: Cc1ccc(-n2nc(C(C)(C)C)cc2NC(=O)Nc2ccc(OCCN3CCOCC3)c3ccccc23)cc1 [Doramapimod] + CC(C)C[C@H](NC(=O)[C@H](Cc1ccccc1)NC(=O)c1cnccn1)B(O)O [Bortezomib] (partner 0.002 µM)
The method, boiled down: as §1

Compound in the experiment “Doramapimod + Dasatinib”: Cc1ccc(-n2nc(C(C)(C)C)cc2NC(=O)Nc2ccc(OCCN3CCOCC3)c3ccccc23)cc1 [Doramapimod] + Cc1nc(Nc2ncc(C(=O)Nc3c(C)cccc3Cl)s2)cc(N2CCN(CCO)CC2)n1 [Dasatinib] (partner 0.075 µM)
The method in brief:
as §1

Regarding UMC-11, the relative viability was found to be 0.354 in the experiment with RAF265 + Phenformin (first compound 0.01 µM); 0.332 with RAF265 + Phenformin (first compound 0.03162 µM); 0.32 with RAF265 + Phenformin (first compound 0.1 µM); 0.318 with RAF265 + Phenformin (first compound 0.3162 µM); 0.259 in the experiment with RAF265 + Phenformin (first compound 1 µM); 0.395 with IPA-3 + Vorinostat (first compound 0.2 µM). Moreover, the relative viability with IPA-3 + Vorinostat (first compound 0.6325 µM) stood at 0.425; with IPA-3 + Vorinostat (first compound 2 µM), 0.389; with IPA-3 + Vorinostat (first compound 6.325 µM) it was 0.394; in the experiment with IPA-3 + Vorinostat (first compound 20 µM), 0.409; in the experiment with Doramapimod + Bortezomib (first compound 0.02 µM) it was 0.772; with Doramapimod + Bortezomib (first compound 0.06325 µM), 0.784. The relative viability with Doramapimod + Bortezomib (first compound 0.2 µM) was 0.564; with Doramapimod + Bortezomib (first compound 0.6325 µM) it was 0.675; with Doramapimod + Bortezomib (first compound 2 µM) it was 0.568; in the experiment with Doramapimod + Dasatinib (first compound 0.02 µM), 0.435; with Doramapimod + Dasatinib (first compound 0.06325 µM) it was 0.447; with Doramapimod + Dasatinib (first compound 0.2 µM), 0.46. The figures for the relative viability with Doramapimod + Dasatinib (first compound 0.6325 µM) and in the experiment with Doramapimod + Dasatinib (first compound 2 µM) were 0.52 and 0.368, respectively.
